Experimental data taken from article PMC5551549 (Endocrinology, 2017).
Entries after “also recorded” stand apart in the source; their conditions may differ.

Tests used:
[1] = system: human GCGR coexpressed with RAMP2; assay: PathHunter β-arrestin recruitment, CHO-K1-βArr-GCGR cells with RAMP2; type: cell-based; details: 90 min, 37°C; PathHunter β-galactosidase complementation; minimum of four separate experiments; Emax P < 0.0001 with vs without RAMP2
Description: PathHunter CHO-K1 GCGR β-Arrestin GPCR assay (DiscoveRx Corporation Ltd.) was used to determine the effect of RAMP2 on the potency of GCGR ligands for recruitment of β-arrestin-1 to the GCGR. The CHO-K1-βArr-GCGR cells are engineered to detect the interaction of β-arrestin with the activated GCGR using β-galactosidase fragment complementation. CHO-K1-βArr-GCGR cells were stably transfected with or without RAMP2, as described previously. […] Fifty-five microliters of the PathHunter detection reagents was added to each well, and the microplate was incubated at room temperature for 60 minutes.

[2] = system: CHO-K1-GCGR cells + RAMP2; assay: cAMP response to forskolin (control), RAMP2-expressing CHO-K1-GCGR cells; type: cell-based, Chinese hamster; details: mean ± SEM; P = 0.20 vs control cells
Method: (§1) CHO-K1 cells overexpressing the human GCGR (with or without RAMP2), plated onto 48-well plates at 40,000 cells/well, were incubated in serum-free media for 1 hour. Peptides were prepared in serum-free DMEM containing 100 µM of IBMX (3-isobutyl-1-methylxanthine; Sigma-Aldrich, United Kingdom). The cells were incubated for 30 minutes with the test peptide, after which media were replaced with 110 µL lysis buffer (0.1M HCl with 0.5% Triton-X). The lysate was assayed by using a direct cyclic adenosine monophosphate ELISA kit (Enzo Life Sciences, United Kingdom), as described in the assay manual. The cyclic adenosine monophosphate (cAMP) response was corrected for well protein levels (Bradford reagent; Sigma-Aldrich) and expressed as a percentage of response to 10 µM forskolin.

[3] = system: CHO-K1-GCGR cells; assay: cAMP response to forskolin (control), CHO-K1-GCGR cells; type: cell-based, Chinese hamster; details: mean ± SEM; P = 0.20 vs RAMP2-expressing cells
Method: as §1

[4] = system: CHO-K1-GCGR cells + RAMP2; assay: Ca^2+ response to ATP (control), RAMP2-expressing CHO-K1-GCGR cells; type: cell-based, Chinese hamster; details: mean ± SEM; P = 0.77 vs control cells
Method: (§2) Cells, plated overnight onto 96-well plates at 50,000 cells/well, were incubated in 75 µL Ca NW^PLUS working reagent for 1 hour at 37°C. […] Fluorescence signal was measured from 5 seconds before to 30 seconds after injection of agonist. The Ca^2+ response was expressed as a percentage of the adenosine triphosphate response (1 µM).

[5] = system: CHO-K1-GCGR cells; assay: Ca^2+ response to ATP (control), CHO-K1-GCGR cells; type: cell-based, Chinese hamster; details: mean ± SEM; P = 0.77 vs RAMP2-expressing cells
Method: as §2

## CC[C@H](C)[C@H](NC(=O)[C@H](Cc1ccccc1)NC(=O)[C@H](CCC(=O)O)NC(=O)[C@H](CCCCN)NC(=O)[C@H](C)NC(=O)[C@H](C)NC(=O)[C@H](CCC(N)=O)NC(=O)CNC(=O)[C@H](CCC(=O)O)NC(=O)[C@H](CC(C)C)NC(=O)[C@H](Cc1ccc(O)cc1)NC(=O)[C@H](CO)NC(=O)[C@H](CO)NC(=O)[C@@H](NC(=O)[C@H](CC(=O)O)NC(=O)[C@H](CO)NC(=O)[C@@H](NC(=O)[C@H](Cc1ccccc1)NC(=O)[C@@H](NC(=O)CNC(=O)[C@H](CCC(=O)O)NC(=O)[C@H](C)NC(=O)[C@@H](N)Cc1c[nH]cn1)[C@@H](C)O)[C@@H](C)O)C(C)C)C(=O)N[C@@H](C)C(=O)N[C@@H](Cc1c[nH]c2ccccc12)C(=O)N[C@@H](CC(C)C)C(=O)N[C@H](C(=O)N[C@@H](CCCCN)C(=O)NCC(=O)N[C@@H](CCCNC(=N)N)C(N)=O)C(C)C [GLP-1]
[1]
  β-arrestin recruitment in cells expressing both GCGR and RAMP2: did not occur; also recorded: completely abolished

## C=C[C@@]1(C)CC(=O)[C@]2(O)[C@@]3(C)[C@@H](O)CCC(C)(C)[C@@H]3[C@H](O)[C@H](OC(C)=O)[C@@]2(C)O1 [forskolin]
[2]
  cAMP response to forskolin, RAMP2-expressing cells: 0.140 ± 0.01 relative absorbance units
[3]
  cAMP response to forskolin, control cells: 0.136 ± 0.01 relative absorbance units

## Nc1ncnc2c1ncn2[C@@H]1O[C@H](COP(=O)(O)OP(=O)(O)OP(=O)(O)O)[C@@H](O)[C@H]1O [ATP, adenosine triphosphate]
[4]
  Ca^2+ response to ATP, RAMP2-expressing cells: 1.84 ± 0.10 relative fluorescence unit fold increase from baseline
[5]
  Ca^2+ response to ATP, control cells: 1.81 ± 0.08 relative fluorescence unit fold increase from baseline
